# Assay results as given in US20220372017A1, “HCK DEGRADERS AND USES THEREOF” (DANA-FARBER CANCER INSTITUTE, INC., priority 2019, published 2022).
# What was measured:
# Format in all cases: cell-based
# [1] = target: T1, HCK (Homo sapiens, UniProt P08631); test: Western blot protein degradation assessment, HCK
# T1 construct: following treatment of MYD88 mutated BCWM.1 cells; endogenous in cells; host or cells: BCWM.1 WM cells (parental and vector/BTK-WT/BTK-C481S transduced); TMD8 ABC-DLBCL cells (transduced)
# Protocol: (§1) SK-6-1 was used as a degrader control compound.
# (§2) SK-6-1 was used as a degrader control compound. […] “ABC-DLBCL” is activated B-cell (ABC) lymphoma, diffuse large B-cell lymphoma (DLBCL).
# (§3) Western blots were performed for the detection of protein degradation following the cell treatments with HCK degraders using antibodies for HCK (Cell Signaling), BTK (Cell Signaling) or Phospho-BTK (Tyr223) (Abcam). GAPDH was used for determination of protein loading.
# [2] = target: T2, BTK (Homo sapiens, UniProt Q06187); test: Western blot protein degradation assessment, BTK; conditions: MYD88 mutated BCWM.1 cells, 6 hours, Western blot (FIG. 4)
# T2 construct: following treatment of MYD88 mutated BCWM.1 cells; endogenous in cells
# Protocol: as §1, §2, §3
# [3] = target: T3, BTK (Homo sapiens, UniProt Q06187, C481S); test: Western blot protein degradation assessment, BTK; conditions: BTK^C481S mutant transduced BCWM.1 WM cells, 6 hours (FIG. 5)
# T3 construct: following treatment of MYD88 mutated BCWM.1 cells; endogenous in cells
# Protocol: as §1, §2, §3
# [4] = system: BTK; test: Western blot protein degradation assessment, BTK; conditions: vector only, BTK^WT or BTK^C481S transduced TMD8 ABC-DLBCL cells, 6 hours (FIG. 6)
# Protocol: as §1, §2, §3
# [5] = system: Phospho-BTK (Tyr223); test: Western blot, Phospho-BTK (Tyr223); conditions: vector only
# Protocol: as §1, §2, §3
# [6] = target: T4, FYN (Homo sapiens, UniProt P06241); test: Proteomics, degradation of target kinases in MOLT4 cells: FYN; conditions: cell line MOLT4 (FIGS. 7A-7B)
# T4 construct: proteomics data on the degradation of target kinases in cell line MOLT4; endogenous in cells; host or cells: MOLT4
# Source text: (§4) FIGS. 7A-7B show proteomics data on the degradation of target kinases in cell line MOLT4 (human T lymphoblast; acute lymphoblastic leukemia) using treatment with exemplary compounds SB1-G-181 and SB1-G-200. FIG. 7A indicates in the bottom left corner the exemplary kinase targets (FYN, SRC, BLK, LCK, CSK, ABL1, ABL2, LIMK1, LATS1) in cell line MOLT4 which were degraded by exemplary compound SB1-G-181. FIG. 7B indicates in the bottom left corner the exemplary kinase targets (FYN, SRC, BLK, LCK, CSK, ABL1, ABL2, LIMK1, LATS1) in cell line MOLT4 which were degraded by exemplary compound SB1-G-200.
# [7] = target: T5, SRC (Homo sapiens, UniProt P12931); test: Proteomics, degradation of target kinases in MOLT4 cells: SRC; conditions: cell line MOLT4 (FIGS. 7A-7B)
# T5 construct: proteomics data on the degradation of target kinases in cell line MOLT4; endogenous in cells; host or cells: MOLT4
# Source text: as §4
# [8] = target: T6, BLK (Homo sapiens, UniProt P51451); test: Proteomics, degradation of target kinases in MOLT4 cells: BLK; conditions: cell line MOLT4 (FIGS. 7A-7B)
# T6 construct: proteomics data on the degradation of target kinases in cell line MOLT4; endogenous in cells; host or cells: MOLT4
# Source text: as §4
# [9] = target: T7, LCK (Homo sapiens, UniProt P06239); test: Proteomics, degradation of target kinases in MOLT4 cells: LCK; conditions: cell line MOLT4 (FIGS. 7A-7B)
# T7 construct: proteomics data on the degradation of target kinases in cell line MOLT4; endogenous in cells; host or cells: MOLT4
# Source text: as §4
# [10] = target: T8, CSK (Homo sapiens, UniProt P41240); test: Proteomics, degradation of target kinases in MOLT4 cells: CSK; conditions: cell line MOLT4 (FIGS. 7A-7B)
# T8 construct: proteomics data on the degradation of target kinases in cell line MOLT4; endogenous in cells; host or cells: MOLT4
# Source text: as §4
# [11] = target: T9, ABL1 (Homo sapiens, UniProt P00519); test: Proteomics, degradation of target kinases in MOLT4 cells: ABL1; conditions: cell line MOLT4 (FIGS. 7A-7B)
# T9 construct: proteomics data on the degradation of target kinases in cell line MOLT4; endogenous in cells; host or cells: MOLT4
# Source text: as §4
# [12] = target: T10, ABL2 (Homo sapiens, UniProt P42684); test: Proteomics, degradation of target kinases in MOLT4 cells: ABL2; conditions: cell line MOLT4 (FIGS. 7A-7B)
# T10 construct: proteomics data on the degradation of target kinases in cell line MOLT4; endogenous in cells; host or cells: MOLT4
# Source text: as §4
# [13] = target: T11, LIMK1 (Homo sapiens, UniProt P53667); test: Proteomics, degradation of target kinases in MOLT4 cells: LIMK1; conditions: cell line MOLT4 (FIGS. 7A-7B)
# T11 construct: proteomics data on the degradation of target kinases in cell line MOLT4; endogenous in cells; host or cells: MOLT4
# Source text: as §4
# [14] = target: T12, LATS1 (Homo sapiens, UniProt O95835); test: Proteomics, degradation of target kinases in MOLT4 cells: LATS1; conditions: cell line MOLT4 (FIGS. 7A-7B)
# T12 construct: proteomics data on the degradation of target kinases in cell line MOLT4; endogenous in cells; host or cells: MOLT4
# T12 sequence (O95835 1-1130): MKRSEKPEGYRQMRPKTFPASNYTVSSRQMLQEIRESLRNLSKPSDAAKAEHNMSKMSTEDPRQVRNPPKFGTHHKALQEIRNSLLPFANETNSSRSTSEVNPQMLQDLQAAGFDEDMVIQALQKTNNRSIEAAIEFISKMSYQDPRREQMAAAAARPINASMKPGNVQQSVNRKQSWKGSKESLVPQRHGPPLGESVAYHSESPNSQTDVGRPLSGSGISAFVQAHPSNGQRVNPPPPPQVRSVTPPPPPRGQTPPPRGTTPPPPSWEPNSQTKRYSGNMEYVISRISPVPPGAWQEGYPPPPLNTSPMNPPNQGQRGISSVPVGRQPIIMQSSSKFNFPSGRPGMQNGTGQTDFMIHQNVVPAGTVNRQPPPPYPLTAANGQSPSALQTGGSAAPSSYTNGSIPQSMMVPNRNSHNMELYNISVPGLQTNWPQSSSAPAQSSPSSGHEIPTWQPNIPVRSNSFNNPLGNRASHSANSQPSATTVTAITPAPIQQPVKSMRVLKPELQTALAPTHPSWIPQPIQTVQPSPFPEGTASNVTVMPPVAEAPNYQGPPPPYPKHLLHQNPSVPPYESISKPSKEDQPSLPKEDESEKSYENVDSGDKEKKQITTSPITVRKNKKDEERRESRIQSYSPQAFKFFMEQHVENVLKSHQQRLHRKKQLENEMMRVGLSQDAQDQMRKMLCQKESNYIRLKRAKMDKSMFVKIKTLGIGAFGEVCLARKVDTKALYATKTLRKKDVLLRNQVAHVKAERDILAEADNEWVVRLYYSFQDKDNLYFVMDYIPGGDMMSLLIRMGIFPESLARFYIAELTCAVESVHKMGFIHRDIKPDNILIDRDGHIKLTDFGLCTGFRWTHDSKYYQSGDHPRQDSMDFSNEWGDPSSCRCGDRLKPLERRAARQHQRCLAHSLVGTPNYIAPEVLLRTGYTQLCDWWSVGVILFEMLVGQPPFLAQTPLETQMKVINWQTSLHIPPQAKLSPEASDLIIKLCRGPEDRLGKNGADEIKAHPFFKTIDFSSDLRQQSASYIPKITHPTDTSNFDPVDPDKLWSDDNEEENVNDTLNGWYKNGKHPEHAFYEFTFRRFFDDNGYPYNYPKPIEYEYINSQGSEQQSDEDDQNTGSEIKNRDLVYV
# Source text: as §4
# [15] = MYD88 mutated BCWM.1 cells, 6 hours, Western blot (FIG. 4)
# T2 sequence (Q06187 2-659): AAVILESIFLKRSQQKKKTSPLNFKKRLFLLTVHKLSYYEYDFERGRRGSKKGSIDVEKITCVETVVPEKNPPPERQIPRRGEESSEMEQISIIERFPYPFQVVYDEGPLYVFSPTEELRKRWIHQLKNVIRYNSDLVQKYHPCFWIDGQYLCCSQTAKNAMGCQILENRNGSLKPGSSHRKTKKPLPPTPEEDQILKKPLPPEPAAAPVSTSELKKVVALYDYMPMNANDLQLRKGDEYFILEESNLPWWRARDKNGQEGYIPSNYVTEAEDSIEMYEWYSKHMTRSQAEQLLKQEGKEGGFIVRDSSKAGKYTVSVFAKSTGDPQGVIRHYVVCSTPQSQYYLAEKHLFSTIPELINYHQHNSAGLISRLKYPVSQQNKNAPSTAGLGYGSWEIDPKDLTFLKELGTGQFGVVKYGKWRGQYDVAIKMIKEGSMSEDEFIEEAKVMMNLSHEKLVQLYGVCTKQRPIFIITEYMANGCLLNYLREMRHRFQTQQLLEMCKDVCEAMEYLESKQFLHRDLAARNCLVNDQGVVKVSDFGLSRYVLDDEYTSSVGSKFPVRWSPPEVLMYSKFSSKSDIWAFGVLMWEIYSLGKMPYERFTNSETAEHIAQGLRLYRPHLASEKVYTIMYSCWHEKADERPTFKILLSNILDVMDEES
# T6 sequence (P51451 whole entry): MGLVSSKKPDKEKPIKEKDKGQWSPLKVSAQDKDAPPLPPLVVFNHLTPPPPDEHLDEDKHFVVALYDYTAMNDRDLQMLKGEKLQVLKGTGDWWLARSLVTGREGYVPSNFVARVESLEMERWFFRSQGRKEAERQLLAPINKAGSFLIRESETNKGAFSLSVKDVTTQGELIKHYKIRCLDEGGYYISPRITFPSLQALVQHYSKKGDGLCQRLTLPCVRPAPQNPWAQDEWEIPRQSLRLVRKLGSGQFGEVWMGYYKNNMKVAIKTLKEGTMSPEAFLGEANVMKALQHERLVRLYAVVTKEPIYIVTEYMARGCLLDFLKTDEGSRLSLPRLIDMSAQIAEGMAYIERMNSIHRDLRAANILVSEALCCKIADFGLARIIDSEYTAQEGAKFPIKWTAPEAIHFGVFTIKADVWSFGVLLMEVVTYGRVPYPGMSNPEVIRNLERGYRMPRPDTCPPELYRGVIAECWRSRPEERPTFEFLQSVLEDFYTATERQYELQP
# T10 sequence (P42684 whole entry): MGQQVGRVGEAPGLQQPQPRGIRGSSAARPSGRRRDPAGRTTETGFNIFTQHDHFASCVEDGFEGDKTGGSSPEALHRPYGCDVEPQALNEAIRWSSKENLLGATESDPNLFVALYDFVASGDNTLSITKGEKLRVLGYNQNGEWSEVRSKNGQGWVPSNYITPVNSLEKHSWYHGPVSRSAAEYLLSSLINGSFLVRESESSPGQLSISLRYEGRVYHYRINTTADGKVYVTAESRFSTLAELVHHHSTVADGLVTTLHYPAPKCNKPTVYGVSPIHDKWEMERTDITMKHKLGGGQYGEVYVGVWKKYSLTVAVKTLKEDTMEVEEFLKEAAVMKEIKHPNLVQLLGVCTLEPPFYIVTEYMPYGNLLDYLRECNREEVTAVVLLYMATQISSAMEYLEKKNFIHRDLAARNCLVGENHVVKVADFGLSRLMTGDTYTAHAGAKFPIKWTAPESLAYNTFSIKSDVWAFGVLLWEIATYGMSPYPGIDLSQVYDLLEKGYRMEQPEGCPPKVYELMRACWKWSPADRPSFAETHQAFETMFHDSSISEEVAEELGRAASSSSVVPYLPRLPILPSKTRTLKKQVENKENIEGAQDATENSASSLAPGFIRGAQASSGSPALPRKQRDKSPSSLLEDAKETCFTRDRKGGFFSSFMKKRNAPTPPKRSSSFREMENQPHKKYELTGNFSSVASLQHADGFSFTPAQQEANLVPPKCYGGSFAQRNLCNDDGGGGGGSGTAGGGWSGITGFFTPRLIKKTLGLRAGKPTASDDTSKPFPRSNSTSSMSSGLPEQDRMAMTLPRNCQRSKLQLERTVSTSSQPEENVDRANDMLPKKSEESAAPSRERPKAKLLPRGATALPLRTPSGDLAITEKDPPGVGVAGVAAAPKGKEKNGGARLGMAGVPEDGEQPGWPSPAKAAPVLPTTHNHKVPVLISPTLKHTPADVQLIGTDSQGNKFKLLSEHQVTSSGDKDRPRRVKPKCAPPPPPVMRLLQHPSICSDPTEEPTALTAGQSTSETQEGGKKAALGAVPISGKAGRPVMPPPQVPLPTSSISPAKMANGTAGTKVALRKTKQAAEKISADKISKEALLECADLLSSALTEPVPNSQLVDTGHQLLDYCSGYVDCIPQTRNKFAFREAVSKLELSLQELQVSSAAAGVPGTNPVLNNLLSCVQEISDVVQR
# T5 sequence (P12931 whole entry): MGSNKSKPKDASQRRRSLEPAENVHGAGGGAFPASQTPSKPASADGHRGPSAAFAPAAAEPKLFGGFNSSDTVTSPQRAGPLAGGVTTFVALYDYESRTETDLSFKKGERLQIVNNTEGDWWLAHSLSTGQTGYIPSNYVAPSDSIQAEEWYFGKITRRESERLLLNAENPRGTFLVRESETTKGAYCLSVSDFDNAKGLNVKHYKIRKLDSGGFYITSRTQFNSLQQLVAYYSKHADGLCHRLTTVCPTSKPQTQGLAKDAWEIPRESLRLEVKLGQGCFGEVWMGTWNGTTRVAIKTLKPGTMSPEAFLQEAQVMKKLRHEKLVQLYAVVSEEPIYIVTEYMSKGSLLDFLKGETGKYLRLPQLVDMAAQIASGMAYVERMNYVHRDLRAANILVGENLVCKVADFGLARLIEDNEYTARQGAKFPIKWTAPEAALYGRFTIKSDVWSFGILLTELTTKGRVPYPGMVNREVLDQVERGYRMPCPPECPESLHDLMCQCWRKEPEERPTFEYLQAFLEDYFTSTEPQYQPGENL
# T4 sequence (P06241 whole entry): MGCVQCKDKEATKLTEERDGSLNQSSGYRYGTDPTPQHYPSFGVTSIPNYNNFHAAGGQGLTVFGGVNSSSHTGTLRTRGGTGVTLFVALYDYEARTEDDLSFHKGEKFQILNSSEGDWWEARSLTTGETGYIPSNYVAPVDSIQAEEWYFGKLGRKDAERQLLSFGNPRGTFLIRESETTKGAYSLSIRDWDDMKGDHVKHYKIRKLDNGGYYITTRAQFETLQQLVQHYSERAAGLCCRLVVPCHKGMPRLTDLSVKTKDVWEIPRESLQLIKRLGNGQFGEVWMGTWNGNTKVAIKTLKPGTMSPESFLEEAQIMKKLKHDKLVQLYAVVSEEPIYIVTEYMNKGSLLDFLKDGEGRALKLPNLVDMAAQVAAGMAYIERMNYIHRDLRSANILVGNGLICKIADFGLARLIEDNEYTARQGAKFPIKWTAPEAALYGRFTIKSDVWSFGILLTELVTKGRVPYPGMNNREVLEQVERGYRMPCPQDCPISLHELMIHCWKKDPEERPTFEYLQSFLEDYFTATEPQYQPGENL
# T11 sequence (P53667 whole entry): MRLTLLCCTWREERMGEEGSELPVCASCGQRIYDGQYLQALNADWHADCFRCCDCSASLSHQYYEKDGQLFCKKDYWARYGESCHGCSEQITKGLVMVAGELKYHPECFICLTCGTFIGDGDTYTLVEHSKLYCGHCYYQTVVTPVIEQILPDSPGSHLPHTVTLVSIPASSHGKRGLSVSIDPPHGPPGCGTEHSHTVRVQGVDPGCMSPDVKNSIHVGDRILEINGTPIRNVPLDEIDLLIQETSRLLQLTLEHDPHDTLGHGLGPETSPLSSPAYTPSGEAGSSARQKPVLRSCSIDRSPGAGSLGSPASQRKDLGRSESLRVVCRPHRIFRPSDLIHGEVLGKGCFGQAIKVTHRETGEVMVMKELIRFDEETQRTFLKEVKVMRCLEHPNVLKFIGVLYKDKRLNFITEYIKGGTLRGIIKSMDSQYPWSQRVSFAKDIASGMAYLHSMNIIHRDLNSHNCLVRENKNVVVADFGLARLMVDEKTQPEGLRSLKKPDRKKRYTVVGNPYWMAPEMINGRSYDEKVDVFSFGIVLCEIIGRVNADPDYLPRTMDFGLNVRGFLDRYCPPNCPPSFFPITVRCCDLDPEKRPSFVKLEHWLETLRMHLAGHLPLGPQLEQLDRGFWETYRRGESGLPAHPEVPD
# T7 sequence (P06239 whole entry): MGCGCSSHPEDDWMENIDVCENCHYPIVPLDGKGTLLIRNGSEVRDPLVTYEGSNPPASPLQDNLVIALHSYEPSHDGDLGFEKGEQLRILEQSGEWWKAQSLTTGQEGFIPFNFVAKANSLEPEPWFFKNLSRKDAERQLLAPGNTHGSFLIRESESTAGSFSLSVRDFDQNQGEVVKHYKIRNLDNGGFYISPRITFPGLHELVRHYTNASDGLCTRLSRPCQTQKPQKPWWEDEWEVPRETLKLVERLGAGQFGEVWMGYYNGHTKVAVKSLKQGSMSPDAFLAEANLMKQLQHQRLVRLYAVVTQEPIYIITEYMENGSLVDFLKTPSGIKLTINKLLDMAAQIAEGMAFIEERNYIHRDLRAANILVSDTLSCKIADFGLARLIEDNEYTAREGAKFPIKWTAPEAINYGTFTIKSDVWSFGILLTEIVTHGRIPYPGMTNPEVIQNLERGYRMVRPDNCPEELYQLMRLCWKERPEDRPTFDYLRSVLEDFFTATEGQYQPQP
# T3 sequence (Q06187 2-659 C481S): as the sequence (Q06187 2-659) above, with C480S counted along it
SMILES,"degradation of HCK [1, 15]","degradation of HCK ([1]; vector only, BTK^WT or BTK^C481S transduced BCWM.1 WM cells, 6 hours (FIG. 5))","degradation of HCK ([1]; vector only, BTK^WT or BTK^C481S transduced TMD8 ABC-DLBCL cells, 6 hours (FIG. 6))",degradation of BTK [2],degradation of BTK [3],degradation of FYN (proteomics) [6],degradation of SRC (proteomics) [7],degradation of BLK (proteomics) [8],degradation of LCK (proteomics) [9],degradation of CSK (proteomics) [10],degradation of ABL1 (proteomics) [11],degradation of ABL2 (proteomics) [12],degradation of LIMK1 (proteomics) [13],degradation of LATS1 (proteomics) [14],degradation of BTK [4],"BTK phosphorylation at Tyr-223 ([5]; BTK^WT or BTK^C481S transduced BCWM.1 WM cells, 6 hours (FIG. 5))","BTK phosphorylation at Tyr-223 ([5]; BTK^WT or BTK^C481S transduced TMD8 ABC-DLBCL cells, 6 hours (FIG. 6))"
Nc1ncnc2c1c(-c1ccc(Oc3ccccc3)cc1)nn2C1CCC(N2CCN(CCOCCNC(=O)CNc3cccc4c3C(=O)N(C3CCC(=O)NC3=O)C4=O)CC2)CC1 (stereo not drawn) [SB1-G-181-P1],effective degradation,–,–,effective degradation,–,–,–,–,–,–,–,–,–,–,–,–,–
Nc1ncnc2c1c(-c1ccc(Oc3ccccc3)cc1)nn2[C@H]1CC[C@H](N2CCN(CCCCCCNC(=O)COc3cccc4c3C(=O)N(C3CCC(=O)NC3=O)C4=O)CC2)CC1 (stereo partly drawn) [SB1-G-200],–,–,–,–,–,degraded,degraded,degraded,degraded,degraded,degraded,degraded,degraded,degraded,–,–,–
"Nc1ncnc2c1c(-c1ccc(Oc3ccccc3)cc1)nn2[C@H]1CC[C@H](N2CCN(CCOCCNC(=O)CNc3cccc4c3C(=O)N(C3CCC(=O)NC3=O)C4=O)CC2)CC1 (stereo partly drawn) [SB1-G-181, N-(2-(2-(4-((1r,4r)-4-(4-amino-3-(4-phenoxyphenyl)-1H-pyrazolo[3,4-d]pyrimidin-1-yl)cyclohexyl)piperazin-1-yl)ethoxy)ethyl)-2-(2-(2,6-dioxopiperidin-3-yl)-1,3-dioxoisoindolin-4-ylamino)acetamide]",–,–,–,–,–,degraded,degraded,degraded,degraded,degraded,degraded,degraded,degraded,degraded,–,–,–

# More lines, main results first:
"degradation of HCK [1, 15]","degradation of HCK ([1]; vector only, BTK^WT or BTK^C481S transduced BCWM.1 WM cells, 6 hours (FIG. 5))","degradation of HCK ([1]; vector only, BTK^WT or BTK^C481S transduced TMD8 ABC-DLBCL cells, 6 hours (FIG. 6))",degradation of BTK [2],degradation of BTK [3],degradation of FYN (proteomics) [6],degradation of SRC (proteomics) [7],degradation of BLK (proteomics) [8],degradation of LCK (proteomics) [9],degradation of CSK (proteomics) [10],degradation of ABL1 (proteomics) [11],degradation of ABL2 (proteomics) [12],degradation of LIMK1 (proteomics) [13],degradation of LATS1 (proteomics) [14],SMILES,degradation of BTK [4],"BTK phosphorylation at Tyr-223 ([5]; BTK^WT or BTK^C481S transduced BCWM.1 WM cells, 6 hours (FIG. 5))","BTK phosphorylation at Tyr-223 ([5]; BTK^WT or BTK^C481S transduced TMD8 ABC-DLBCL cells, 6 hours (FIG. 6))"
effective degradation,effective degradation,effective degradation,effective degradation,diminished,–,–,–,–,–,–,–,–,–,Nc1ncnc2c1c(-c1ccc(Oc3ccccc3)cc1)nn2[C@H]1CC[C@H](N2CCN(CCOCCOCCNC(=O)CNc3cccc4c3C(=O)N(C3CCC(=O)NC3=O)C4=O)CC2)CC1 (stereo partly drawn) [SB1-G-185-P1],effective degradation,blocked,blocked
effective degradation,–,–,effective degradation,–,–,–,–,–,–,–,–,–,–,Nc1ncnc2c1c(-c1ccc(Oc3ccccc3)cc1)nn2[C@H]1CC[C@H](N2CCN(CCOCCOCCOCCNC(=O)CNc3cccc4c3C(=O)N(C3CCC(=O)NC3=O)C4=O)CC2)CC1 (stereo partly drawn) [SB1-G-182-P1],–,–,–
